Data published in PubChem BioAssay AID328 (DTP/NCI, 2004).
Several values for one entry are separate records, joined by “and”; a condition that tells them apart may be missing. Equal entries are not always repeated. Inconclusive results and toxic doses are left out.

Tested on: BDF1 mice, P388 leukemia ip, median survival T/C
Test: NCI In Vivo Anticancer Drug Screen. Data for tumor model P388 Leukemia (intraperitoneal) in B6D2F1 (BDF1) mice
Conditions: endpoint: median survival time, higher = longer survival
Procedure, shortened: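 Steps: implant the tumour, treat one group with compound and another with vehicle, record survival, then divide treated by control.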

[1] = dose: 12.5 mg/kg/injection, schedule: Q01DX009 (ip), vehicle: saline with Tween-80
[2] = dose: 25.0 mg/kg/injection, schedule: Q01DX009 (ip), vehicle: saline with Tween-80
[3] = dose: 100.0 mg/kg/injection, schedule: Q01DX009 (ip), vehicle: saline with Tween-80
[4] = dose: 100.0 mg/kg/injection, schedule: Q04DX003 (ip), vehicle: saline with Tween-80
[5] = dose: 200.0 mg/kg/injection, schedule: Q04DX003 (ip), vehicle: saline with Tween-80
[6] = dose: 400.0 mg/kg/injection, schedule: Q04DX003 (ip), vehicle: saline with Tween-80
[7] = dose: 50.0 mg/kg/injection, schedule: Q04DX003 (ip), vehicle: saline with Tween-80

CSC(=S)N/N=C(\C)C1CCCC[N-]1.[I][Zn][I] (stereo not given)
T/C [1]: 109 % of control and 110 % of control and 115 % of control | T/C [2]: 109 % of control (2×) and 117 % of control | T/C [3]: 118 % of control

Cc1ccc(NC(=O)c2ccccc2C(=O)O)c(C)c1
T/C [4]: 100 % of control | T/C [5]: 100 % of control | T/C [6]: 118 % of control

Cc1ccc([N+](=O)[O-])cc1NC(=O)Oc1ccccc1
T/C (dose: 100.0 mg/kg/injection, schedule: Q04DX003 (ip), vehicle: other): 92 % of control | T/C (dose: 200.0 mg/kg/injection, schedule: Q04DX003 (ip), vehicle: other): 96 % of control | T/C (dose: 400.0 mg/kg/injection, schedule: Q04DX003 (ip), vehicle: other): 96 % of control

CC1CCOS(=O)O1 (stereo not given)
T/C (dose: 10.0 mg/kg/injection, schedule: Q01DX010 (ip), vehicle: saline): 100 % of control | T/C (dose: 20.0 mg/kg/injection, schedule: Q01DX010 (ip), vehicle: saline): 95 % of control and 104 % of control | T/C (dose: 40.0 mg/kg/injection, schedule: Q01DX010 (ip), vehicle: saline): 100 % of control and 104 % of control

CC1(C)N=C(N)N=C(N)N1c1ccc(Cl)c(Cl)c1
T/C (dose: 7.2 mg/kg/injection, schedule: Q01DX009 (ip), vehicle: Klucel (hydroxypropylcellulose) (HPC)): 122 % of control | T/C (dose: 16.0 mg/kg/injection, schedule: Q01DX009 (ip), vehicle: Klucel (hydroxypropylcellulose) (HPC)): 181 % of control | T/C (dose: 20.0 mg/kg/injection, schedule: Q04DX003 (ip), vehicle: Klucel (hydroxypropylcellulose) (HPC)): 120 % of control | T/C (dose: 22.5 mg/kg/injection, schedule: Q01DX009 (ip), vehicle: Klucel (hydroxypropylcellulose) (HPC)): 172 % of control | T/C (dose: 26.0 mg/kg/injection, schedule: Q04DX003 (ip), vehicle: Klucel (hydroxypropylcellulose) (HPC)): 154 % of control | T/C (dose: 30.0 mg/kg/injection, schedule: Q01DX009 (ip), vehicle: Klucel (hydroxypropylcellulose) (HPC)): 95 % of control | T/C (dose: 40.0 mg/kg/injection, schedule: Q04DX003 (ip), vehicle: Klucel (hydroxypropylcellulose) (HPC)): 231 % of control and 158 % of control

COC(=O)C1CC(O)CN1C(=O)c1c2nc3c(C(=O)N4CC(O)CC4C(=O)OC)ccc(C)c3oc-2c(C)c(=O)c1N (stereo not given)
T/C [4]: 96 % of control | T/C [5]: 100 % of control | T/C [6]: 114 % of control

COc1ccc(-c2c(C)c(C)[nH]c(=O)c2C(=O)O)c(OCc2ccccc2)c1OC
T/C [3]: 99 % of control | T/C [4]: 110 % of control | T/C (dose: 200.0 mg/kg/injection, schedule: Q01DX009 (ip), vehicle: saline with Tween-80): 105 % of control | T/C [5]: 103 % of control | T/C (dose: 400.0 mg/kg/injection, schedule: Q01DX009 (ip), vehicle: saline with Tween-80): 103 % of control | T/C [6]: 117 % of control

FC(F)(F)C(F)(F)C(F)(F)c1nc2nc(Cl)c(Cl)nc2[nH]1
T/C (dose: 3.12 mg/kg/injection, schedule: Q01DX009 (ip), vehicle: saline with Tween-80): 115 % of control | T/C (dose: 6.25 mg/kg/injection, schedule: Q01DX009 (ip), vehicle: saline with Tween-80): 105 % of control | T/C [1]: 95 % of control | T/C [7]: 95 % of control | T/C [4]: 90 % of control

CC1(C)N=C(N)N=C(N)N1c1ccc(CNC(=O)Nc2cccc(S(=O)(=O)F)c2)cc1
T/C (dose: 35.0 mg/kg/injection, schedule: Q04DX003 (ip), vehicle: saline): 104 % of control | T/C (dose: 50.0 mg/kg/injection, schedule: Q04DX003 (ip), vehicle: saline): 150 % of control | T/C (dose: 75.0 mg/kg/injection, schedule: Q04DX003 (ip), vehicle: saline): 163 % of control | T/C (dose: 99.0 mg/kg/injection, schedule: Q04DX003 (ip), vehicle: saline): 200 % of control | T/C (dose: 150.0 mg/kg/injection, schedule: Q04DX003 (ip), vehicle: saline): 159 % of control and 195 % of control and 215 % of control | T/C (dose: 225.0 mg/kg/injection, schedule: Q04DX003 (ip), vehicle: saline): 225 % of control and 163 % of control | T/C (dose: 300.0 mg/kg/injection, schedule: Q04DX003 (ip), vehicle: saline): 177 % of control

Nc1ccc(C(=O)CC(C(=O)O)c2ccccc2)cc1 (stereo not given)
T/C (dose: 100.0 mg/kg/injection, schedule: Q04DX002 (ip), vehicle: saline with Tween-80): 88 % of control | T/C (dose: 200.0 mg/kg/injection, schedule: Q04DX002 (ip), vehicle: saline with Tween-80): 90 % of control | T/C (dose: 400.0 mg/kg/injection, schedule: Q04DX002 (ip), vehicle: saline with Tween-80): 99 % of control

COc1ccc(CC(=O)NCCc2ccccc2)cc1OC
T/C [1]: 112 % of control | T/C (dose: 12.5 mg/kg/injection, schedule: Q04DX003 (ip), vehicle: saline with Tween-80): 100 % of control | T/C [2]: 104 % of control | T/C (dose: 25.0 mg/kg/injection, schedule: Q04DX003 (ip), vehicle: saline with Tween-80): 100 % of control | T/C (dose: 50.0 mg/kg/injection, schedule: Q01DX009 (ip), vehicle: saline with Tween-80): 110 % of control | T/C [7]: 109 % of control | T/C [4]: 99 % of control and 100 % of control
